Values of other authors, collected in patent EP2367539B1, “NOVEL COMPOSITION FOR TREATMENT OF ESSENTIAL THROMBOCYTHEMIA” (AOP Orphan Pharmaceuticals AG, priority 2008, dated 2010).

Columns and labels:
PDE 3 [1] = conditions: compared with anagrelide
PDE 3 [2] = test system: PDE 3

O=C1NC2=Nc3ccc(Cl)c(Cl)c3CN2C1O (centres unmarked) [3-hydroxyanagrelide]
potency as an inhibitor of PDE 3 (PDE 3 [1]): considerably more potent than anagrelide

NC1=Nc2ccc(Cl)c(Cl)c2CN1 [RL 603, 2-amino-5,6-dichloro-3,4-dihydroquinazolone]
platelet reduction and PDE 3 inhibitory activity (PDE 3 [2]): lacks these activities
